Measured values from publication PMC5598403 (Toxicology Reports, 2014).

Target: CK2α (protein kinase CK2 catalytic subunit α) (Homo sapiens, UniProt P68400)
Test: radiometric [γ-32P]ATP kinase assay with synthetic peptide RRRADDSDDDDD
Assay type: biochemical

Chain of CK2α (protein kinase CK2 catalytic subunit α) (P68400 whole entry): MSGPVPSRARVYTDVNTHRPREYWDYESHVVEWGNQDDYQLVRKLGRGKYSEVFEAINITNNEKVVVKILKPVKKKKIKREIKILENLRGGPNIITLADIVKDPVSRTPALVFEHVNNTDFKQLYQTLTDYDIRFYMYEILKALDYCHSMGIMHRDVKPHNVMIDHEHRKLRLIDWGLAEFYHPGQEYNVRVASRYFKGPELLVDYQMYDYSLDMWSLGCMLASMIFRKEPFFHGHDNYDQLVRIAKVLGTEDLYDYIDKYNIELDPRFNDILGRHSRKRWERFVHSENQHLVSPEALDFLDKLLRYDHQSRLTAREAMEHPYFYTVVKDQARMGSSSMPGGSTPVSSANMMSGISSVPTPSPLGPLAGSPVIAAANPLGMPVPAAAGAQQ

Oc1c(Cl)c(Cl)c(Cl)c(Cl)c1Cl [PCP, pentachlorophenol]
IC50: 3.73 µM
